Measurements taken from ChEMBL document CHEMBL1201862, “PubChem BioAssay data set” (2004).
Activity calls are given as the source filed them.

Key:
Nonstructural protein 1 = Nonstructural protein 1 (Influenza A virus, UniProt Q194T2); type: functional, Influenza A virus (A/California/07/2009(H1N1))
[1] = HeLa cell cytotoxicity, dose response, cytotoxicity control, CellTiter-Glo luminescence, dry powder, set 2 (AID 720593); type: functional, cell-based
[2] = HepG2 cell cytotoxicity, dose response, cytotoxicity control, ATP luminescence, cherry-pick, set 6 (AID 1053125); type: functional, cell-based
cells [3] = details: A549
cells [4] = experiment: cells
cells [5] = details: HEK293
[6] = Cryptococcus neoformans growth inhibition, dose response, Alamar Blue, cherry-picks (AID 686998); type: functional, organism-based
HEK293 [7] = experiment: HEK293T cell cytotoxicity, dose response, cytotoxicity control, ATP luminescence, cherry-pick samples (AID 687005); type: functional, cell-based; details: Homo sapiens;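 further: cells exposed to compound for 48 hours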
[8] = HEK293 Cytotoxicity Assay Measured in Cell-Based System Using Plate Reader - 7071-01_Inhibitor_Dose_CherryPick_Activity_Set2.; type: functional
[9] = Luminescence Cell-Based Dose Confirmation HTS to Identify Activators of 5'UTR Stem-Loop Driven Alpha-Synuclein mRNA Translation in H4 Neuroglioblastoma Cells. [Related pubchem assays: 1829 (Project Summary), 1814 (Primary HTS)]; type: functional
[10] = Luminescence Cell-Based Dose Response HTS to Identify Activators of Luciferase Translation or Activity in H4 […] Cells. [Related pubchem assays: 1829 (Project Summary), 1814 (Primary HTS)]; type: functional
H4 = experiment: Luminescence Cell-Based Dose Response HTS to Identify Activators of 5'UTR Stem-Loop Driven Prion Protein mRNA Translation in H4 Neuroglioblastoma Cells. [Related pubchem assays: 1829 (Project Summary), 1814 (Primary HTS)]; type: functional; details: Homo sapiens
INS1 = experiment: beta cell apoptosis inhibitors, cytokine rescue, dose response, luminescence, retest (AID 449756); type: functional, cell-based; details: Rattus norvegicus;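 further: cell death triggered by IL-1 beta plus TNF-alpha plus IFN-gamma mixture; protective hits raise ATP signal compared with cytokine alone wells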
[11] = HepG2 cell cytotoxicity, dose response, cytotoxicity control, ATP luminescence, cherry-pick, activator set 2 (AID 1053143); type: functional, cell-based
HEK293 [12] = experiment: NOD1 signaling inhibitors, primary screen, cell-based, luminescence, uHTS (AID 1578); type: functional; details: Homo sapiens
BJ [13] = experiment: cytotoxicity toward BJ-TERT fibroblasts, dose response, cell-based, RAS-independent, luminescence (AID 1933); type: functional; details: Homo sapiens
HEK293 [14] = experiment: cells; type: functional, cell-based; details: Homo sapiens
BJ [15] = experiment: cells; type: functional, cell-based; details: Homo sapiens
HEK293 [16] = experiment: cells; type: functional, cell-based; details: Homo sapiens; remark: listed apart in the source
[17] = target: Luciferin 4-monooxygenase (Photinus pyralis, UniProt P08659); experiment: firefly luciferase enzyme inhibitors, dose response, biochemical, luminescence (AID 1891)
Sequence of Luciferin 4-monooxygenase (P08659 whole entry): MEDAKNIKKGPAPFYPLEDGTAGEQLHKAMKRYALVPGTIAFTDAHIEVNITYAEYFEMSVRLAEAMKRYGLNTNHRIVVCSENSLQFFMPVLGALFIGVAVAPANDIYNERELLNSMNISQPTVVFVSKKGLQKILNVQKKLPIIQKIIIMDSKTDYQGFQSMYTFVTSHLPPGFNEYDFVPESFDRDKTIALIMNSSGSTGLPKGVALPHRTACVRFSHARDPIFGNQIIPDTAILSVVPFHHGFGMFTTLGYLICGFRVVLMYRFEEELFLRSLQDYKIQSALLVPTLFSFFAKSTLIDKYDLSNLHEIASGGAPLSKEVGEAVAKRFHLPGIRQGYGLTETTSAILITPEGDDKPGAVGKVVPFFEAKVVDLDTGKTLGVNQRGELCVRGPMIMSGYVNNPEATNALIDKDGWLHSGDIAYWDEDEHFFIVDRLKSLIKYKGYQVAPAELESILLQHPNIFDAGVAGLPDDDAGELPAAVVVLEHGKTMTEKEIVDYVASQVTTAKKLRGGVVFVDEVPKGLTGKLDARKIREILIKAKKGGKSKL

[18] = Luminescence Cell-Based Dose Confirmation HTS to Identify Inhibitors of Platelet Dense Granule Release. [Related pubchem assays: 1663 (Primary HTS), 1678 (Summary of Project)]; type: functional
[19] = target: Nucleotide-binding oligomerization domain-containing protein 2 (Homo sapiens, UniProt Q9HC29); experiment: NOD2 signaling inhibitors, cell-based, luminescence, uHTS, HEK293 (AID 1566); type: functional
HEK293 [20] = experiment: cells; type: functional, cell-based; details: Homo sapiens; remark: listed apart in the source
BJ [21] = experiment: cytotoxicity toward BJ-TERT-LT-ST fibroblasts, dose response, cell-based, RAS-independent, luminescence (AID 1935); type: functional; details: Homo sapiens;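 further: BJ fibroblasts immortalized with TERT plus LT and ST oncogenes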
[22] = cytotoxicity toward DRD oncogenic fibroblasts, dose response, cell-based, non-viral oncogenic, luminescence (AID 1934); type: functional; details: Homo sapiens
[23] = target: Disintegrin and metalloproteinase domain-containing protein 17 (Homo sapiens, UniProt P78536); experiment: exosite inhibitors of ADAM17, dose response, biochemical (AID 743260)
Sequence of Disintegrin and metalloproteinase domain-containing protein 17 (P78536 whole entry, the tested form may be a part): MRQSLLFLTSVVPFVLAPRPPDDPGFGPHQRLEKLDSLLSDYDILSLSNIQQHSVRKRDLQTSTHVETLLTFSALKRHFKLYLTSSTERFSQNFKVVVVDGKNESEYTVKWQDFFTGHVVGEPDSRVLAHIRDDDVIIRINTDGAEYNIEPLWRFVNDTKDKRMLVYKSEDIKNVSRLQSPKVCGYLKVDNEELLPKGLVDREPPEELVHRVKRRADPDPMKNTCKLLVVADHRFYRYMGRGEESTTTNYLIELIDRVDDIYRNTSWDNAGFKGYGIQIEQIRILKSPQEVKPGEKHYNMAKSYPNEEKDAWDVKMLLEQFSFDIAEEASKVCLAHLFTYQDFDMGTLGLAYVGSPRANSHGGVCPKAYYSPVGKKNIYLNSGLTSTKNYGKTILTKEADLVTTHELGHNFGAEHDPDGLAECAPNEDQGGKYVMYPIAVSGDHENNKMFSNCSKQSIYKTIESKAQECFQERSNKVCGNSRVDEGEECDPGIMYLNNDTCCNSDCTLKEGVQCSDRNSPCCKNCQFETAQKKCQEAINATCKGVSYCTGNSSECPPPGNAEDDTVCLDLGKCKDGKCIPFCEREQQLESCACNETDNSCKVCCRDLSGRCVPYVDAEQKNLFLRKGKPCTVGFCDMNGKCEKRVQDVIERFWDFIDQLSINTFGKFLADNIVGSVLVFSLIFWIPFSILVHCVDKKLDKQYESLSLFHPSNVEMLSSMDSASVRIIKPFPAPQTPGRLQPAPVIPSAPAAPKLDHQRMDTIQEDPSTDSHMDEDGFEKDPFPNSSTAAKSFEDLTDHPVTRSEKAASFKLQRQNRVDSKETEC

[24] = ADAM10 protease inhibitors, dose response, selectivity assay for ADAM17 exosite inhibitor project, biochemical, FRET peptide substrate, recombinant human ADAM10 (AID 743259);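 further: ADAM10 enzyme cleaving a FRET peptide substrate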
Paired box protein Pax-8 = Paired box protein Pax-8 (Homo sapiens, UniProt Q06710); experiment: inhibitors of PAX8-driven TPO luciferase reporter, dose response, RMG-I cells, cherry-pick (AID 687027); type: functional, cell-based;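 further: luciferase reporter driven by Pax8 target thyroperoxidase promoter measured by SteadyGlo luminescence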
Sequence of Paired box protein Pax-8 (Q06710 whole entry): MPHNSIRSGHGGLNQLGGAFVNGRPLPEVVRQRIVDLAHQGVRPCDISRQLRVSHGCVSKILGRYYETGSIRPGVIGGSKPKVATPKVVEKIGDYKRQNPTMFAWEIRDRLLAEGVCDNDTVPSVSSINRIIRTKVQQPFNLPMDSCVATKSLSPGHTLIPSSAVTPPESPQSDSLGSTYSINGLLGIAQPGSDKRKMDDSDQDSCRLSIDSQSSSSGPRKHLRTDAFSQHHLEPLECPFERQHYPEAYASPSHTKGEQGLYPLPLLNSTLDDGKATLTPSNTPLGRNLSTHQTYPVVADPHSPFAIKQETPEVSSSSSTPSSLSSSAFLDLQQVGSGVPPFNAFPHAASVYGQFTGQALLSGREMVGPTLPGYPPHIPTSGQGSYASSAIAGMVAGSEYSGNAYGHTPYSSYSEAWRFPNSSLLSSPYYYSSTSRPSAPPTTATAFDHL

[25] = non-specific cell cytotoxicity, dose response, cytotoxicity control for PAX8 inhibitor project, plate reader, dry powder samples (AID 743021); type: functional, cell-based
[26] = Shn3 3'UTR reporter inhibitors, dose response, cell-based, Clone20 osteoblasts, firefly luciferase, cherry-picked (AID 624132); type: functional;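 further: firefly luciferase luminescence from reporter carrying the Shn3 3'UTR in osteoblasts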
[27] = HepG2 cell cytotoxicity, dose response, cytotoxicity control for Shn3 inhibitor project, CellTiter-Glo, cherry-picked (AID 624134); type: functional, cell-based
[28] = reduction of Shn3 3'UTR firefly luciferase signal, dose response, Schnurri-3 inhibitor project, cell-based, Clone20 osteoblasts, cherry-pick, set 2 (AID 720490); type: functional;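 further: actives lower the luminescence signal as inhibitors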
[29] = inhibitors of control Renilla luciferase reporter, dose response, counter-screen for Shn3 3'UTR targeting project, Clone20-Shn3RL cells, dual-Glo, cherry-pick, set 2 (AID 720724); type: functional, cell-based; details: Dual-Go Shn3RL
[30] = miR-122 activators in hepatoma reporter cells, dose response, cell-based, Huh7 psiCHECK-miR122, Renilla luciferase, cherry-picked (AID 651956); type: functional;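 further: huh7 hepatoma cells stably carrying a psiCHECK-2 miR-122 sensor plasmid; renilla luciferase signal reporting endogenous miR-122 activity after 48 h compound exposure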
[31] = HEK293T cytotoxicity, dose response, cytotoxicity control for miR-122 modulator project, cell-based, activator set, cherry-pick (AID 720690); type: functional;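 further: HEK293T human cells scored for general mammalian cytotoxicity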
[32] = PAX2 cell-based inhibition, dose response, selectivity assay for PAX8 inhibitor project, plate reader, dry powder samples (AID 743048); type: functional;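 further: HEK293 cells carrying a WT1 promoter luciferase reporter driven by expressed Pax2; potency is for inhibition of Pax2 driven reporter signal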
[33] = cytotoxicity in COV362 ovarian cancer cells, dose response, cytotoxicity control for PAX8 inhibitor project, cell-based, plate reader, dry powder, SA12 (AID 743144); type: functional
[34] = PAX5 activity inhibitors, dose response, selectivity assay for PAX8 inhibitor project, cell-based, plate reader, dry powder samples (AID 743047); type: functional;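 further: HEK293 cells carrying a Pax5 driven CD19 promoter luciferase reporter; potency of inhibitors that lower reporter luminescence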
[35] = IGROV1 ovarian cancer cell cytotoxicity, dose response, PAX8 inhibitor project, plate reader, dry powder samples (AID 743043); type: functional, cell-based; details: IGROV-1
[36] = cytotoxicity in OVCAR4 cells, dose response, cytotoxicity control for PAX8 inhibitor project, cell-based, plate reader, dry powder, SA11 (AID 743150); type: functional; details: OVCAR-4
[37] = cytotoxicity in COV434 cells, dose response, cytotoxicity control for PAX8 inhibitor project, cell-based, plate reader, dry powder, SA7 (AID 743145); type: functional
[38] = cytotoxicity in OV-90 ovarian cancer cells, dose response, PAX8 inhibitor project, cell-based, plate reader, dry powder, SA8 (AID 743149); type: functional
[39] = cytotoxicity dependent on PAX8, dose response, cell-based, plate reader, dry powder (AID 743049); type: functional
[40] = Late stage assay provider results from the probe development effort to identify selective inhibitors of heat shock protein 90 (HSP90): Absorbance-based cell proliferation assay in SKBR3 cells.; type: functional; details: SK-BR-3
[41] = Late stage assay provider results from the probe development effort to identify selective inhibitors of heat shock protein 90 (HSP90): Absorbance-based cell proliferation assay in MCF7 cells.; type: functional
Fatty acid synthase = Fatty acid synthase (Homo sapiens, UniProt P49327); experiment: FAS thioesterase domain inhibitors, SAR follow-up, biochemical, endpoint fluorescence intensity, powder samples (AID 652164); type: functional
Sequence of Fatty acid synthase (P49327 whole entry, the tested form may be a part): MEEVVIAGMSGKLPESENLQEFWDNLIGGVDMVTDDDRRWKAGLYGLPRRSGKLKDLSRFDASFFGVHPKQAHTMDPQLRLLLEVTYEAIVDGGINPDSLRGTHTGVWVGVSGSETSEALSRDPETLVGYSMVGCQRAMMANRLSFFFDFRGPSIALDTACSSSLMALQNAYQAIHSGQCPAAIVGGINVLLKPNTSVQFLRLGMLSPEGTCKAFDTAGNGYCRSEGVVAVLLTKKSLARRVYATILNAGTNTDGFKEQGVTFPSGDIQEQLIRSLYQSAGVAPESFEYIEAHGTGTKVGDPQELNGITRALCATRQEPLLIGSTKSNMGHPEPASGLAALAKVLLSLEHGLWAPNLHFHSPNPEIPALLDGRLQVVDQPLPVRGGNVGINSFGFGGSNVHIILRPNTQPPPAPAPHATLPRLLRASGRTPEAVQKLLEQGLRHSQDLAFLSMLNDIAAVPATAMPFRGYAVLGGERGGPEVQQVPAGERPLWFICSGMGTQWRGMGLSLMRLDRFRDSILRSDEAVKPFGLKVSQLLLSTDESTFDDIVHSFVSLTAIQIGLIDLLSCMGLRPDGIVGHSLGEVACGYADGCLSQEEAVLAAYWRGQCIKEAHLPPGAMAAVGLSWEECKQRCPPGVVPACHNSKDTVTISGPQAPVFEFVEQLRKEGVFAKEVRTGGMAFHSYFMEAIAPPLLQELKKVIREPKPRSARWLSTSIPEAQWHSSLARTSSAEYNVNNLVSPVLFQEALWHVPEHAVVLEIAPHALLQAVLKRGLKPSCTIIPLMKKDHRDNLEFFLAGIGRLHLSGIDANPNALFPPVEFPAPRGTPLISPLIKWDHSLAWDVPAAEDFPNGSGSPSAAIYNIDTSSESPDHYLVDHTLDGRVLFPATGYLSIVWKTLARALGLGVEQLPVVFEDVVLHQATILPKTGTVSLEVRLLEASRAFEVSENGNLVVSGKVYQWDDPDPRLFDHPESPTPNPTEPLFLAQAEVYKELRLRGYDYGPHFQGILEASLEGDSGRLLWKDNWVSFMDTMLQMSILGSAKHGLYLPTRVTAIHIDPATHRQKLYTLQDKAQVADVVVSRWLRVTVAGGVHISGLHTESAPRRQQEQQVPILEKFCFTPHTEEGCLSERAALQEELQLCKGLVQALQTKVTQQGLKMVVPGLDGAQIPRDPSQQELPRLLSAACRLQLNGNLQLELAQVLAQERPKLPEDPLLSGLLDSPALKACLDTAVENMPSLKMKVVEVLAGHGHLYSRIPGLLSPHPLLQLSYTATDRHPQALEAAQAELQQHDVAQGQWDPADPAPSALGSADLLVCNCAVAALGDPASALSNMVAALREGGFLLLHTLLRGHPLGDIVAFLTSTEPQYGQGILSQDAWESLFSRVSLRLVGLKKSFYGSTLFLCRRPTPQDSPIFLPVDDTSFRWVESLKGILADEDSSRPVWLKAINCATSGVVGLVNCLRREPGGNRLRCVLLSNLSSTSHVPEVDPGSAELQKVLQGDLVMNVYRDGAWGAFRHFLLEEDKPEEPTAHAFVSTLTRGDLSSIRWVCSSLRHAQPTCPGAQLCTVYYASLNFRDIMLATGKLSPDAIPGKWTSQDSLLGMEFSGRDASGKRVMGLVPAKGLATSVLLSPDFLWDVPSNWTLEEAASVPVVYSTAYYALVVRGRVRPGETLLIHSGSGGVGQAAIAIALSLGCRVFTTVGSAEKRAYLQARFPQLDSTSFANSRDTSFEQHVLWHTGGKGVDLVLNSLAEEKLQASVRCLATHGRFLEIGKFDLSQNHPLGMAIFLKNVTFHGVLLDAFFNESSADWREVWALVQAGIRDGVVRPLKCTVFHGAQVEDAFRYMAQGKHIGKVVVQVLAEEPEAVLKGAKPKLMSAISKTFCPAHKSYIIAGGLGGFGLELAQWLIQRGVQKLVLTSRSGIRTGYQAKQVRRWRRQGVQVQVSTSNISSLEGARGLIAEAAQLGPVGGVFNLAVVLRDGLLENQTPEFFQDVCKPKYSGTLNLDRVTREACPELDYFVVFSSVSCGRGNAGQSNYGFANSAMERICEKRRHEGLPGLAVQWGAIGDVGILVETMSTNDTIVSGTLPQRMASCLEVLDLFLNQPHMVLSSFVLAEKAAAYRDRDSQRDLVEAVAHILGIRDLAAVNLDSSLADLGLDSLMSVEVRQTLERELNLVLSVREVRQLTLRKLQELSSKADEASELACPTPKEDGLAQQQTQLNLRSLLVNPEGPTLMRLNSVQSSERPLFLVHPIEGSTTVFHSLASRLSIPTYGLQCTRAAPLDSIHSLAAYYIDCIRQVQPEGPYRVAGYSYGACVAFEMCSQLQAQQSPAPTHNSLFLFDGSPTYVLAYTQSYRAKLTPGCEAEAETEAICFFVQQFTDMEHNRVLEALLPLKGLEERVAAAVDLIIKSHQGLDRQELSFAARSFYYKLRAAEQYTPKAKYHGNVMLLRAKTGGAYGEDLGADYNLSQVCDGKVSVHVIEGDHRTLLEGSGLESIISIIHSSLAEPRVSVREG

[42] = control 3'UTR Renilla luciferase suppression, dose response, counter-screen for Shn3 inhibitor project, cell-based, Clone20-Shn3RL, cherry-picked (AID 624133); type: functional
Protein skinhead-1 = target: T1, Protein skinhead-1 (Caenorhabditis elegans, UniProt P34707); type: functional
T1 sequence (P34707 whole entry): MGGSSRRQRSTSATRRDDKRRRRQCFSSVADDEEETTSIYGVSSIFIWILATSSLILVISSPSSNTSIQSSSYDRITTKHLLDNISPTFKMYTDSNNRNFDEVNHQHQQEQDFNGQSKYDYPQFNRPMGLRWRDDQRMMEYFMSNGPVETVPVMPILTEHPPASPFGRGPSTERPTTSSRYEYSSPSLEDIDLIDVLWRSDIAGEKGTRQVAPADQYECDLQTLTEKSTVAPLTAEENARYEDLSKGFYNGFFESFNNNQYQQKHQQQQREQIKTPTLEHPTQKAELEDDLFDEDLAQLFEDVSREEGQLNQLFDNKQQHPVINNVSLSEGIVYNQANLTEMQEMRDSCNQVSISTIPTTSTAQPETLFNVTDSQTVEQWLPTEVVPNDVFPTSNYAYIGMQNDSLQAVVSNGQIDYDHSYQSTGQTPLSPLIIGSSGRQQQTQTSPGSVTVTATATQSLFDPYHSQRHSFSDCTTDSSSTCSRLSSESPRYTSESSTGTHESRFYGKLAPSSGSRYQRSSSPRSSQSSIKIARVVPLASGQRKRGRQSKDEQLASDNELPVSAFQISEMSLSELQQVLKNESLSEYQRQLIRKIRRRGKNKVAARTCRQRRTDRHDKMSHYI

[43] = Fluorescence-based cell-based high throughput dose response assay for inhibitors of the interaction of nucleotide-binding oligomerization domain containing 2 (NOD2) and the receptor-interacting serine-threonine kinase 2 (RIPK2).; type: functional; details: Homo sapiens
Beta Lactamase = Beta Lactamase (Pseudomonas aeruginosa, UniProt Q932Y6); experiment: beta-lactamase reporter inhibitor potency, dose response, artefact control for NOD2-RIPK2 interaction inhibitor project, BLA reporter cells, FRET fluorescence (AID 651552); type: functional, cell-based
Sequence of Beta Lactamase (Q932Y6 whole entry): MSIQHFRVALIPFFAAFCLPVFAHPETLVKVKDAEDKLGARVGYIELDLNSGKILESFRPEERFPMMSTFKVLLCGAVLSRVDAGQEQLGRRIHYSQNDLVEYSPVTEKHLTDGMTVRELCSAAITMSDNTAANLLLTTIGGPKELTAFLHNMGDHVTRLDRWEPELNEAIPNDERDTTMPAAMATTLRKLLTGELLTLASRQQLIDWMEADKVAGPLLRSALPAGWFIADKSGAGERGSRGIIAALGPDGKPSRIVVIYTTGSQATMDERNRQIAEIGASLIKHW

[44] = A549 cell cytotoxicity, dose response, cytotoxicity control, plate reader, cherry-pick, antagonist series (AID 743412); type: functional, cell-based
[45] = HepG2 cell cytotoxicity, dose response, cytotoxicity control, plate reader, cherry-pick, antagonist series (AID 743416); type: functional, cell-based
[46] = LGR2 antagonists, dose response, cell-based, HEK293, CRE-luciferase reporter, cherry pick, set 2 (AID 743343); type: functional;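 further: transfected cells were stimulated with diluted bursicon conditioned medium after compound addition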
[47] = MC4R antagonists, dose response, counter-screen for LGR2 antagonist project, cell-based, plate reader, cherry pick (AID 743444); type: functional;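 further: transfected HEK 293 cells stimulated with alpha-MSH peptide; potency of inhibitors of the alpha-MSH evoked signal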
[48] = HEK293 cell cytotoxicity, dose response, cytotoxicity control, plate reader, cherry-picked samples (AID 743446); type: functional, cell-based

Sequence of Nonstructural protein 1 (Q194T2 whole entry): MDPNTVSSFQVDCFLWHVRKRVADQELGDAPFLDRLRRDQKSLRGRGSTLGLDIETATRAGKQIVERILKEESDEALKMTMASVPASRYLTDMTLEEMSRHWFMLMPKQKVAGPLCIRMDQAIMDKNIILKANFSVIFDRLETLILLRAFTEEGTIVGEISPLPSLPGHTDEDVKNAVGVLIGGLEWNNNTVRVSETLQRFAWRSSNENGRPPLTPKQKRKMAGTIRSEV

SMILES: c1ccc(-c2n[nH]c(-c3ccncc3)n2)nc1
- IC50 (Nonstructural protein 1): 9.19 µM (active)
- AC50 [1]: > 52 µM (inactive)

SMILES: Nc1c(C(=O)NCc2ccccc2)c2nc3ccccc3nc2n1CCCN1CCOCC1
- AC50 [2]: 17.1 µM (active)
- AC50 (cells [3]): 15.6 µM (active)
- AC50 (cells [4]): 32.1 µM (active)
- AC50 (cells [5]): 25.2 µM (active)

SMILES: COC(=O)C1=C(C)N(C)C(S)=NC1c1ccccc1 (stereo not drawn)
- AC50 [6]: 120 µM (active)
- AC50 (HEK293 [7]): > 92 µM (inactive)
- AC50 [8]: > 92 µM (inactive)

SMILES: COc1ccc(C2CC(c3ccc4ccccc4c3OC(C)=O)=NN2C(C)=O)cc1 (stereo not drawn)
- EC50 [9]: 0.512 µM (active)
- EC50 [10]: 3.82 µM (active)
- EC50 (H4): 0.456 µM (active)
- AC50 (INS1): 3.3 µM (active)
- AC50 [11]: 26 µM (active)

SMILES: Cc1ccccc1S(=O)(=O)Cc1ccc(C(=O)N2CCN(c3cccc(C)c3C)CC2)o1
- EC50 (HEK293 [12]): 5.29 µM (active)
- EC50 (BJ [13]): 11.1 µM (active)
- IC50 (HEK293 [14]): 3.96 µM (active)
- EC50 (BJ [15]): 10 µM (inconclusive)
- IC50 (HEK293 [16]): 10.5 µM (active)
- EC50 [17]: 28.5 µM (active)
- EC50 [18]: > 112 µM (not active)
- EC50 [19]: 10.8 µM (active)
- IC50 (HEK293 [20]): > 20 µM (inactive)
- EC50 (BJ [21]): 4.92 µM (active)
- EC50 [22]: 4.95 µM (active)
- IC50 [23]: > 69.6 µM (inactive)
- IC50 [24]: 11.7 µM (inactive)

SMILES: COC(=O)C1C=CC(OC2OC(COC(C)=O)C(OC(C)=O)C(OC(C)=O)C2OC(C)=O)n2c(=O)n(-c3ccccc3)c(=O)n21 (stereo not drawn)
- AC50 (Paired box protein Pax-8): 3.41 µM (active)
- AC50 [25]: 40 µM (active)

SMILES: CN(CC(=O)Nc1ccccc1Cl)C(=O)c1cccc(S(=O)(=O)N2CCN(c3ccccc3)CC2)c1
- AC50 [26]: 3.84 µM (active)
- AC50 [27]: > 70 µM (inactive)
- AC50 [28]: 4.32 µM (active)
- AC50 [29]: 47.9 µM (active)

SMILES: CO[C@@H]1CN(C)C(=O)c2ccc(NC(=O)c3ccc(Oc4ccccc4)cc3)cc2OC[C@H](C)NC[C@@H]1C
- AC50 [30]: 11.3 µM (active)
- AC50 [31]: 23.6 µM (active)

SMILES: C[C@@H]1CN([C@H](C)CO)C(=O)c2cc(NC(=O)CCCCCC(=O)Nc3ccccc3N)ccc2O[C@@H]1CN(C)Cc1ccc(C(F)(F)F)cc1
- AC50 (Paired box protein Pax-8): 6.43 µM (active)
- AC50 [32]: > 32 µM (inactive)
- AC50 [33]: 32.9 µM (active)
- AC50 [34]: 30 µM (active)
- AC50 [35]: 39 µM (active)
- AC50 [36]: 31.2 µM (active)
- AC50 [37]: > 70 µM (inactive)
- AC50 [38]: > 70 µM (inactive)
- AC50 [39]: 10.1 µM (active)

SMILES: O=C(Nc1ccccc1I)c1coc(=O)c(Br)c1
- IC50 [40]: 45.3 µM (inactive)
- IC50 [41]: 29.4 µM (inactive)

SMILES: CCC(=O)Nc1nc(-c2ccc(S(=O)(=O)N3CCC(C)CC3)cc2)cs1
- IC50 (Fatty acid synthase): > 80 µM (inactive)

SMILES: O=C1NC2C(=CC(O)C(O)C2O)c2cc3c(c(O)c21)OCO3 (stereo not drawn)
- AC50 [26]: < 0.26 µM (active)
- AC50 [27]: 59 µM (active)
- AC50 [42]: 0.431 µM (active)
- IC50 (Protein skinhead-1): 24 µM (active)
- IC50 [43]: 49.7 µM (inactive)
- IC50 (Beta Lactamase): 49.7 µM (inactive)
- AC50 [44]: 0.17 µM (active)
- AC50 [45]: 0.218 µM (active)
- AC50 [46]: 0.138 µM (active)
- AC50 [47]: 0.161 µM (active)
- AC50 [48]: 0.167 µM (active)
